For 29 molecules, AC50 and EC50 results are on record in ChEMBL document CHEMBL1201862, “PubChem BioAssay data set” (2004).

Cytochrome P450 2D6, sequence (P10635 whole entry): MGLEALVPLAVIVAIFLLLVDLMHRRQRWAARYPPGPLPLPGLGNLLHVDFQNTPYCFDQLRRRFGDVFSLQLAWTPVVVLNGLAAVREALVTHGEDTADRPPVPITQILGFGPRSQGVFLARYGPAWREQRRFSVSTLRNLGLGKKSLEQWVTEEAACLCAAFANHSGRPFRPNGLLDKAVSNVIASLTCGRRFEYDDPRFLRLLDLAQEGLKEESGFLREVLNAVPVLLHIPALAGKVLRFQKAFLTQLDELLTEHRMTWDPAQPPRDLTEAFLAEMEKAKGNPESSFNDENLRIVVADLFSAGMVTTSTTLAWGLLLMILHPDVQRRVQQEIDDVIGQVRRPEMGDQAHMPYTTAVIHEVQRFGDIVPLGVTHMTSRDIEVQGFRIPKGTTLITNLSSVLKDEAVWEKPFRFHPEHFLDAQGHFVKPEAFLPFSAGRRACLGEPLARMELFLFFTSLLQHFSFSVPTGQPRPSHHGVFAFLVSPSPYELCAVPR
Cytochrome P450 3A4, sequence (P08684 whole entry): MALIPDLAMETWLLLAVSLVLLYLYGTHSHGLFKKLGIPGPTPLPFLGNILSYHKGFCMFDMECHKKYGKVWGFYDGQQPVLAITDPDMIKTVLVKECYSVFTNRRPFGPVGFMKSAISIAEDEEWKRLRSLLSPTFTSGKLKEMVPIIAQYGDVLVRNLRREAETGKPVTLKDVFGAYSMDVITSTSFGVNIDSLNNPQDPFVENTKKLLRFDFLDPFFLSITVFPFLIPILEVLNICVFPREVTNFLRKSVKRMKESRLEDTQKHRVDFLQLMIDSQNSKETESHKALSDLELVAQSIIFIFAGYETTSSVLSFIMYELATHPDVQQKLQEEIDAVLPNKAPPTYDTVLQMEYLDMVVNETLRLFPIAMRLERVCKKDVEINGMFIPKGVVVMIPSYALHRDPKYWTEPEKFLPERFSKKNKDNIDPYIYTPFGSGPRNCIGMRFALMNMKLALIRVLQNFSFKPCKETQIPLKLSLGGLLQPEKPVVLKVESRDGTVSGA
Cytochrome P450 2C19, sequence (P33261 whole entry): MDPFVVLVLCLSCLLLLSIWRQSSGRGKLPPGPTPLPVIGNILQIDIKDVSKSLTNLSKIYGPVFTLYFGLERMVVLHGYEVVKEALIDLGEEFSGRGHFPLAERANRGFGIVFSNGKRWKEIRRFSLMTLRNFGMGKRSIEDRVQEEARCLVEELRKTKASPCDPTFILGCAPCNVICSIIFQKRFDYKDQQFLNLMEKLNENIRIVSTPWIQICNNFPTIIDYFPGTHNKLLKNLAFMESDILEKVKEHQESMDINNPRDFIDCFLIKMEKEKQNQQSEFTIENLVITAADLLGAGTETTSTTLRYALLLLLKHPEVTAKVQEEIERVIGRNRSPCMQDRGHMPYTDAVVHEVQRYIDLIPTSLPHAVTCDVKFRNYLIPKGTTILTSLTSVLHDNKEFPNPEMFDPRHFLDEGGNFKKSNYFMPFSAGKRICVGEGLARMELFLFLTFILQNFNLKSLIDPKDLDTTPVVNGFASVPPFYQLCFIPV

For the first assay, the target named is Cytochrome P450 2C9 (Homo sapiens, UniProt P11712).
Cytochrome P450 2C9, sequence (P11712 whole entry): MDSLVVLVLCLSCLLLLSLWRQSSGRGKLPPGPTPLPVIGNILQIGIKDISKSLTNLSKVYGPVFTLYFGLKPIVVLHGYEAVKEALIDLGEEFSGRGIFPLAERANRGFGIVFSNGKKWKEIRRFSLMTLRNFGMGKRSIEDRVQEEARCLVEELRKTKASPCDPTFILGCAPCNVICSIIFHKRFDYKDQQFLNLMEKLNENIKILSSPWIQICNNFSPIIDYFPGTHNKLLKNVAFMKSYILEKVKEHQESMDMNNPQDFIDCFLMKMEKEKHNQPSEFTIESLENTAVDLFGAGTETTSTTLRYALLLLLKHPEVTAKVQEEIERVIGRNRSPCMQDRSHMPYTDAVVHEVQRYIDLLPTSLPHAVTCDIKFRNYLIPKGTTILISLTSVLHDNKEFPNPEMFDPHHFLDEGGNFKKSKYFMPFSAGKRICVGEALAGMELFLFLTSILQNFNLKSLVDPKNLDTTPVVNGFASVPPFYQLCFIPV
Details: not given
Consider `CCC(C)NCc1ccc(C(=O)OC)o1` (centres undefined), for which the AC50 is 0.447 µM (inconclusive).

Consider `CC(=O)N1CCC2(CCCN(C(c3ccccc3)c3ccccc3)C2)CC1`, for which the AC50 is 31.6 µM (inconclusive).

The target in a further assay is T1, Heat shock factor protein 1 (Mus musculus, UniProt P38532).
T1 sequence (P38532 whole entry): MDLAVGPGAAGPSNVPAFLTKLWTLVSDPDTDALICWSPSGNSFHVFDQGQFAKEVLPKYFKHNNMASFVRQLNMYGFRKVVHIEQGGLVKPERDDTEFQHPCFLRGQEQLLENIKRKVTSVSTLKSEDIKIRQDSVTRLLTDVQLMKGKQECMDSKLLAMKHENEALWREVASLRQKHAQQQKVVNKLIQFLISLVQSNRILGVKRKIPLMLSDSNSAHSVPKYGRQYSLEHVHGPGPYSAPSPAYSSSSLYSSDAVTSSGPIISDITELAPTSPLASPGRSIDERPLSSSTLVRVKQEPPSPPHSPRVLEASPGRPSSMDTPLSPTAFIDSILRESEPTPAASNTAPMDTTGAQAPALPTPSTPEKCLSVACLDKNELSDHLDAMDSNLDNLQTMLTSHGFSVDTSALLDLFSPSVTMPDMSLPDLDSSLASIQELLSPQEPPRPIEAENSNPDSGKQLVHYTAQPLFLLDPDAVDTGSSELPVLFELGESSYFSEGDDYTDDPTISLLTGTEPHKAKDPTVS
The assay is described as follows: inhibition of MG132-induced HSE-luciferase signal, confirmation, cell-based, NIH3T3, luminescence, dose retest (AID 2382).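 Note: NIH3T3 fibroblasts with HSF1-driven luciferase reporter stressed by proteasome inhibitor MG132; luminescence from HSF1-driven luciferase expression after 8 hours of MG132 stress.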
Details: not given
In kind it is functional.
Regarding `CCCCC1C(=O)NC(=S)NC1=O`, the EC50 is given as > 195 µM (not active). On the same count and under the same terms, the figure for `CCOC(=O)C1CCCN(CCC(=O)Nc2cc(OC)ccc2OC)C1` (centres undefined) is > 195 µM (not active); for `NC(=S)N/N=C1\CC(n2nnnc2-c2ccccc2Cl)C2COC1O2` (centres undefined) it is > 195 µM (not active). The same measure, in the same setting: under `CCOC(=O)c1ccc(Oc2nc(NC)nc(Nc3ccccc3)n2)cc1` stands > 195 µM (not active).

Regarding `O=C(OCn1nnc2ccccc2c1=O)c1cc(-c2ccccc2)nc2ccccc12`, the concentration giving a half-maximal response (EC50) is reported as > 195 µM (not active). Regarding `C=CCC1(C(=O)NCCO)CCN(C(=O)OC(C)(C)C)CC1`, the EC50 was > 195 µM (not active). Still for that read-out and setting: the figure for `COc1ccc(N2CCN(C(CNC(=O)C(=O)NCc3ccncc3)c3ccco3)CC2)cc1` (centres undefined) is > 195 µM (not active); for `COc1cccc(C(c2sc3nc(C)nn3c2O)N2CCN(C(=O)c3ccco3)CC2)c1` (centres undefined) it is > 195 µM (not active); for `COCCCNC(=O)CC(NS(=O)(=O)c1ccc(C)cc1)c1ccc(OC)cc1` (centres undefined) it is > 195 µM (not active). Still for that read-out and setting: under `CCOC(=O)c1sc(NC(=O)CSc2nnc(-c3ccccc3)[nH]2)c(C#N)c1C` stands > 195 µM (not active); under `NC(=O)c1ccc[n+](CC(=O)OCCC23CC4CC(CC(C4)C2)C3)c1`, > 195 µM (not active); under `COc1ccc(CC(C)Nc2cccc(SC)c2)cc1` (centres undefined), > 195 µM (not active). For the molecule `CN(C(=O)c1ccc(OC2CCN(Cc3ccccn3)CC2)cc1)C1CCCCC1`, the EC50 is on record as > 195 µM (not active). With `Cc1cccc(NS(=O)(=O)c2cc3c(cc2C)NC(=O)CO3)c1`, the EC50 was > 195 µM (not active). On the same count and under the same terms, under `CCCn1c(SCC(=O)c2c(C)[nH]c(C)c2C(=O)OCC)nc2ccccc21` stands > 195 µM (not active); under `COc1ccc(Br)cc1CN1CCN(CCO)CC1`, > 195 µM (not active); under `CN=C(S)N(CCc1c(C)[nH]c2ccc(F)cc12)Cc1cccnc1`, > 195 µM (not active). The same measure, in the same setting: under `O=C1CC(N2CCCCC2)C(=O)N1c1ccccc1` (centres undefined) stands > 195 µM (not active); under `O=C(N/N=C\c1c[nH]nc1-c1ccccc1)c1cccs1`, > 195 µM (not active).

The next assay concerns the target Cytochrome P450 2D6 (Homo sapiens, UniProt P10635).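 Note: CYP2D6 member of a cytochrome P450 panel assay.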
Details: not given
As for `CCC(C)NCc1ccc(C(=O)OC)o1` (centres undefined), the half-maximal activity concentration (AC50) was 14.1 µM (inconclusive).

Turning to `NC(=O)c1ccc[n+](CC(=O)OCCC23CC4CC(CC(C4)C2)C3)c1`, the concentration at half-maximal activity (AC50) is 39.8 µM (inconclusive).

As to `CNc1nc(-c2ccccc2C(F)(F)F)nc2ccccc12`, the concentration at half-maximal activity (AC50) was 20 µM (inconclusive).

Another assay addresses Cytochrome P450 2C19 (Homo sapiens, UniProt P33261). As to the kind of experiment: Cytochrome panel assay with activity outcomes. Panel member name: p450-cyp2c19 Compounds with AC50 equal or less than 10 uM are considered active. In kind it is functional. The conditions noted are these: read-out: AC50.
As to `CCC(C)NCc1ccc(C(=O)OC)o1` (centres undefined), the AC50 is 15.8 µM (inconclusive).

With `CNc1nc(-c2ccccc2C(F)(F)F)nc2ccccc12`, the AC50 was 31.6 µM (inconclusive).

Another assay addresses Cytochrome P450 3A4 (Homo sapiens, UniProt P08684).
Details: not given
On to `O=C(Nc1ccc2c(c1)nc1n2CCN(C2CCCCC2)C1)NC1CCCCC1`, for which the AC50 is 15.8 µM (inconclusive). `CCNc1ncc2nc(-c3cc(F)cc(F)c3)c(=O)n(CCOC)c2n1`: the AC50 was 7.94 µM (inconclusive). Take `CC(=O)N1CCC2(CCCN(C(c3ccccc3)c3ccccc3)C2)CC1`: the AC50 is 12.6 µM (inconclusive). For `CO[C@H]1COC(=O)[C@@H](C)COC(=O)[C@@H](COCc2ccccc2)NC(=O)C/C=C\[C@H]1C`, the AC50 is 3.98 µM (inconclusive).

Turning to `CC(C)CC(=O)N1CCC(O)(CS(=O)(=O)Cc2ccc(Cl)cc2)CC1`, the AC50 is 8.91 µM (inconclusive).

As to `CCC(c1nnnn1CCOC)N1CCN(C(=O)c2ccco2)CC1` (centres undefined), the AC50 is 28.2 µM (inconclusive).

Turning to `O=C(NCc1cc(F)cc2c1OCCO2)[C@H]1C[C@@H]1[C@H](NP(=O)(c1ccccc1)c1ccccc1)c1ccccc1`, the AC50 is 3.98 µM (inconclusive). In the case of `CC1=C/C(=N/O)C([C@H]2C=C(C)CC(C)(C)[C@@H]2O)C(C)(C)C1` (some centres undefined), the AC50 was 5.01 µM (inconclusive).

In general, AC50 refers to the midpoint of the concentration-response curve, whichever way the signal moves. Usually EC50 stands for the concentration giving half of the maximal effect. Lower therefore signals greater potency.
